{
  "source": "paper PMC9114338",
  "about": "(Scientific Reports, 2022)",
  "key": {"[1]": {"experiment": "Compartmental PK model, IV and SQ co-modeling", "type": "in vivo, C57BL/6 J mice", "conditions": "mouse", "excerpt": "The results of the simultaneous model (co-model) are summarized in Table 2, and the parameters were used in subsequent simulation exercises (vide infra).\nThe change in amount over time within each compartment was related to the difference in the input into the compartment (e.g., the Dose × F × Ka term into compartment C1) and the output from the compartment (e.g., the Concentration × Kout term for compartment Ccell). Two compartments –plus a dosing compartment– best described TFV plasma PKs.\nA third compartment was used to model the PKs of PBMC TFV-DP concentrations. Intracellular PKs of TFV-DP were linked to the plasma TFV concentration via saturable uptake (Vmax and Km) with maximum velocity of uptake and first order elimination kinetics, Kout. […] C1 is the central compartment, representing the TFV plasma concentration in the body. The second compartment C2 represents the peripheral tissues, and the cellular compartment Ccell represents the concentrations of TFV-DP in PBMCs. Parameters CLp and Vp describe clearance and volume of the peripheral compartment (C2) and Ka and CL are the rates of TFV uptake and clearance into/out of the central compartment (C1), respectively. […] The physiological PBMC volume was assumed to be 7.55 × 10^–7 L/10^6 cells, to remain consistent with Duwal et al.[44] for the model analysis, while all other parameters were estimated in the model. The ordinary differential equations (Eqs. 1–3) used in the final model are presented below:1 d/dtC1t=F·Ka·Dt/V-C1t·CL/V-CLp/V·C1t+CLp/Vp·C2t 2 d/dtC2t=[…] 3 d/dtCcellt=Vmax·C1t/Km-Ccellt·Kout\nCompartmental analyses were performed in Phoenix software (version 8.3, Certara, Princeton, NJ) using a published, simple, structural PK model describing the TFV kinetics. IV and SQ data were modeled simultaneously. Due to the destructive nature of the blood sampling, data were modeled using a naïve-pooled algorithm, without inter-animal variability. The resulting systemic parameters, along with the implant in vivo release rates on a per animal basis, were used to co-model (predict) concentration data in mice following during implant dosing."}, "[2]": {"conditions": "subcutaneous dosing of the free drug, humanized mice; cited from earlier work"}, "[3]": {"experiment": "MALDI imaging mass spectrometry of dermal tissues adjacent to the implant", "type": "in vivo, C57BL/6 J mice", "method": "The used implants, the surrounding capsule, and the encasing dermal tissue were removed as a block in accordance with ISO 10993-6 guidelines, processed and stored, as described elsewhere. Briefly, the capsule was cut longitudinally and rolled open, taking care not to disrupt the architecture of the tissue or to damage the used implant. A portion of the tissue specimen was placed into 4% paraformaldehyde solution (phosphate-buffered at pH 7.2), and stored at 4 °C, for histopathology and two other portions were flash-frozen in liquid nitrogen for drug concentration analysis as well as for drug spatial distribution analysis by MALDI-IMS (vide infra).\nFrozen mouse tissue specimens were shipped to Vanderbilt University on dry ice and stored at − 80 °C prior to use. Tissues were removed from the − 80 °C freezer and placed in a − 20 °C cryostat (CM 1900, Leica Biosystems, Buffalo Grove, IL) and sectioned. Tissue samples that had been prepared via removal of the used implant were affixed to the cryostat chuck with optimal cutting temperature (OCT) polymer and were cut on the cryostat into 12 µm thick sections for imaging mass spectrometry and H&E staining.\nTissue samples that still contained the implant in place were embedded in OCT prior to sectioning. In order to minimize the artifactual signal from the TAF powder after sectioning (the act of the cryostat blade cutting through an intact implant distributed residual TAF powder that still remained in the used implant onto the surrounding tissue section), house vacuum was used to remove visible TAF powder, followed by lightly running nitrogen gas over the plate to remove any additional loose powder from the slide.\nThe tissue sections were thaw-mounted onto indium-tin oxide coated glass slides for imaging (Delta Technologies, Ltd, Loveland, CO). The tissue sections were left to dry for at least 15 min in a desktop vacuum desiccator prior to matrix application. […] For 9AA, four passes were applied at 85 °C in a crisscross pattern, with a 700 mm min^-1 stage velocity, 2 mm track spacing, and 0.15 mL min^-1 flow rate. For DHB the same method was used, except eight passes were applied and the stage velocity was 1300 mm min^-1.\nFlash-frozen dermal tissue samples collected adjacent to the TAF implants and sectioned were analyzed with a linear ion trap mass spectrometer equipped with a MALDI source and a nitrogen laser (LTQ XL, Thermo Scientific, Waltham, MA). The structures of compounds of interest are shown in Scheme 1. Targeted MS/MS methods were optimized for each compound using authentic samples as standards, with the final parameters shown in Appendix A under Supplementary Information. Pseudo-selected reaction monitoring mode was used for imaging by isolating precursor ions with a 1 Da window, fragmenting them, and acquiring full product ion mass spectra at each pixel. TFV, TFV-MP, and TFV-DP were analyzed in negative ion mode, while TAF, Metabolite X, and Metabolite Y were analyzed in positive ion mode. In most cases, after imaging, the matrix was removed and the tissue section that had been imaged was H&E stained for better image registration with tissue morphology. Standard images were acquired at either 50 or 100 µm spatial resolution. Reconstructed ion images were generated in ImageQuest software (Thermo Scientific, Waltham, MA) by plotting the intensity of the diagnostic fragment ion or ions as a function of location across the tissue surface."}},
  "note": "Read-outs that look alike come from different tables or passages of the source.",
  "data": [
    {"smiles": "C[C@H](Cn1cnc2c(N)ncnc21)OCP(=O)(O)O", "note": "[TFV, tenofovir]", "values": [
      {"measurement": "clearance", "setting": "[1]; C57BL/6 J, plasma, other: intravenous and subcutaneous injection, co-modelled, 0.5 mg, IV and SQ co-modeling, read-out: CL, total body clearance (converted)", "value": 4.48, "unit": "mL/min"},
      {"measurement": "half-life", "setting": "[1]; C57BL/6 J, plasma, other: intravenous and subcutaneous injection, co-modelled, 0.5 mg, IV and SQ co-modeling, read-out: Elimination half-life t1/2, plasma TFV (converted)", "value": 53, "unit": "h"},
      {"measurement": "Vd", "setting": "[1]; C57BL/6 J, plasma, other: intravenous and subcutaneous injection, co-modelled, 0.5 mg, IV and SQ co-modeling, read-out: V, volume of distribution of the central compartment", "value": 4.59, "unit": "L"},
      {"measurement": "half-life", "setting": "[1]; C57BL/6 J, plasma, other: intravenous and subcutaneous injection, co-modelled, 0.5 mg, IV and SQ co-modeling, read-out: t1/2, elimination half-life, plasma TFV (converted)", "value": 52.8, "unit": "h"},
      {"measurement": "Vmax/Km as share of the non-saturable clearance", "setting": "[1]; in vivo", "value": 2, "unit": "%"},
      {"measurement": "Plasma TFV t1/2", "setting": "[2]", "value": 14, "unit": "h"},
      {"measurement": "Detection by MALDI-IMS in dermal tissue samples during implant TAF delivery", "setting": "[3]; all medicated specimens", "value": "detected"},
      {"measurement": "Spatial distribution in dermal tissue sections (MALDI-IMS)", "setting": "[3]; high-releasing (0.58 mg d^-1) implants, D3–D28", "value": "distributed homogeneously throughout the samples"},
      {"measurement": "MALDI-IMS signal and localization with implant in situ", "setting": "[3]; low-releasing (0.23 mg d^-1) implants, Day 14, 100 µm resolution", "value": "most abundant signals"}
    ]}
  ]
}
